Each structure is given as a SMILES string.

For orientation: melting point means the temperature of the solid-liquid transition. `N=C(Nc1cccc(NC(=O)Cc2ccccc2)c1)c1ccccc1` [Example 1, N-[3-(iminobenzylamino)phenyl]phenylacetamide] came in with a melting point of 213 to 214 °C. In turn, `N=C(Nc1cccc(NC(=O)C=Cc2ccccc2)c1)c1ccccc1` [Example 2, N-[3-(iminobenzylamino)phenyl]cinnamamide] registered a melting point of 115 to 117 °C. The figure for `Cc1ncccc1Oc1ccc(NC(=O)/C=C/c2ccccc2C(F)(F)F)cn1` [Example 9, (2E)-N-[6-(2-methyl-3-pyridyloxy)pyridin-3-yl]-3-[2-(trifluoromethyl)phenyl]-2-propenamide] is 214 to 216 °C. Turning to `COc1ccccc1/C=C/C(=O)Nc1cccc(NC(=N)c2ccccc2)c1` [Example 14, (2E)-N-[3-(iminobenzylamino)phenyl]-3-(2-methoxyphenyl)-2-propenamide], the melting point lay within 219 to 221 °C.

Compound `N=C(Nc1ccc(F)c(NC(=O)/C=C/c2ccccc2Cl)c1)c1cccs1` [Example 16, (2E)-N-[2-fluoro-5-[[imino(2-thienyl)methyl]amino]phenyl]-3-(2-chlorophenyl)-2 propenamide] gave a melting point of 215 to 216 °C. On to `N=C(Nc1ccc(F)c(NC(=O)/C=C/c2ccccc2Cl)c1)c1ccccc1` [Example 17, (2E)-N-[2-fluoro-5-(iminobenzylamino)phenyl]-3-(2-chlorophenyl)-2-propenamide], for which the melting point lay in the range of 189 to 191 °C. `COc1ccc(Cl)cc1C(=N)Nc1ccc(F)c(NC(=O)/C=C/c2ccccc2Cl)c1` [Example 18, (2E)-N-[5-[[(5-chloro-2-methoxyphenyl)(imino)methyl]amino]-2-fluorophenyl]-3-(2-chlorophenyl)-2-propenamide] had a melting point of 229 to 230 °C. Consider `COc1ccc(F)cc1C(=N)Nc1cc(Cl)cc(NC(=O)/C=C/c2ccccc2Cl)c1` [Example 23, (2E)-N-[3-chloro-5-[[(5-fluoro-2-methoxyphenyl)(imino)methyl]amino]phenyl]-3-(2-chlorophenyl)-2-propenamide], for which the melting point was in the range of 238 to 239 °C.

In turn, `COc1ccc(Cl)cc1C(=N)Nc1cc(Cl)cc(NC(=O)/C=C/c2ccccc2Cl)c1` [Example 24, (2E)-N-[3-chloro-5-[[(5-chloro-2-methoxyphenyl)(imino)methyl]amino]phenyl]-3-(2-chlorophenyl)-2-propenamide] returned a melting point of 226 to 228 °C.

As for `CC(C)c1ccc(NC(=N)c2cccc(NC(=O)C=Cc3ccccc3Cl)c2)cc1` [Example 27, N-[3-[imino(4-isopropylanilino)methyl]phenyl}-2-chlorocinnamamide], the melting point lay within 112 to 118 °C. The compound `COc1ccc(F)cc1C(=N)Nc1cc(Cl)cc(NC(=O)/C=C/c2ccccc2C(F)(F)F)c1` [Example 30, (2E)-N-[3-chloro-5-[[(5-fluoro-2-methoxyphenyl)(imino)methyl]amino]phenyl]-3-[2-(trifluoromethyl)phenyl]-2-propenamide] returned a melting point of 213 to 214 °C. Compound `N=C(Nc1cc(Cl)cc(NC(=O)/C=C/c2ccccc2Cl)c1)c1ccccc1` [Example 31, (2E)-N-[3-chloro-5-(iminobenzylamino)phenyl]-3-(2-chlorophenyl)-2-propenamide] had a melting point of 105 to 115 °C. Under `N=C(Nc1cc(NC(=O)/C=C/c2ccccc2Cl)cc(C(F)(F)F)c1)c1cccs1` [Example 32, (2E)-N-[3-trifluoromethyl-5-[[imino(2-thienyl)methyl]amino]phenyl]-3-(2-chlorophenyl)-2-propenamide] stands 206 to 208 °C; under `N=C(Nc1cc(Cl)cc(NC(=O)/C=C/c2ccccc2Cl)c1)c1cccs1` [Example 33, (2E)-N-[3-chloro-5-[[imino(2-thienyl)methyl]amino]phenyl]-3-(2-chlorophenyl)-2-propenamide], 123 to 124 °C; under `N=C(Nc1cc(Cl)cc(NC(=O)/C=C/c2ccccc2C(F)(F)F)c1)c1cccs1` [Example 34, (2E)-N-[3-chloro-5-[[imino(2-thienyl)methyl]amino]phenyl]-3-[2-(trifluoromethyl)phenyl]-2-propenamide], 178 to 179 °C.

`N=C(Nc1cc(Cl)cc(NC(=O)/C=C/c2ccccc2C(F)(F)F)c1)c1ccccc1` [Example 35, (2E)-N-[3-chloro-5-(iminobenzylamino)phenyl]-3-[2-(trifluoromethyl)phenyl]-2-propenamide] registered a melting point of 137 to 139 °C. Under `N#Cc1cc(NC(=N)c2ccccc2)cc(NC(=O)/C=C/c2ccccc2C(F)(F)F)c1` [Example 36, (2E)-N-[3-cyano-5-(iminobenzylamino)phenyl]-3-[2-(trifluoromethyl)phenyl]-2-propenamide] stands 181 to 182 °C; under `Cc1ccc(/C=C/C(=O)Nc2cccc(NC(=N)c3ccccc3)c2)cc1` [Example 38, (2E)-N-[3 (iminobenzylamino)phenyl]-3-(4-methylphenyl)-2-propenamide], 147 to 149 °C. With `Cc1cccc(/C=C/C(=O)Nc2cccc(NC(=N)c3ccccc3)c2)c1` [Example 39, (2E)-N-[3-(iminobenzylamino)phenyl]-3-(3-methylphenyl)-2-propenamide], the melting point fell in the range of 179 to 180 °C. `Cc1ccccc1/C=C/C(=O)Nc1cccc(NC(=N)c2ccccc2)c1` [Example 40, (2E)-N-[3 (iminobenzylamino)phenyl]-3-(2-methylphenyl)-2-propenamide] gave a melting point of 109 to 114 °C.

`Cn1c(NCc2cccc(NC(=O)C=Cc3ccccc3Cl)c2)nc2ccccc21` [Example 43, N-[3-[[(1-methyl-1H-benzimidazol-2-yl)amino]methyl]phenyl]-3-(2-chlorophenyl)-2-propenamide] registered a melting point of 188 to 191 °C. `O=C(C=Cc1ccccc1Cl)Nc1ccc(NCc2ccccn2)nc1` [Example 44, N-[6-[(2-pyridylmethyl)amino]-3-pyridyl]-3-(2-chlorophenyl)-2-propenamide] registered a melting point of 164 to 165 °C. `Cc1ncccc1Oc1ccc(NC(=O)C=Cc2ccccc2Cl)cn1` [Example 45, N-[6-[(2-methyl-3-pyridyl)oxy]-3-pyridyl]-3-(2-chlorophenyl)-2-propenamide] yielded a melting point of 187 to 189 °C. The compound `N=C(Nc1cccc(NC(=O)/C=C/c2ccccc2C(F)(F)F)c1)c1ccccc1` [Example 46, (2E)-N-[3-(iminobenzylamino)phenyl]-3-[2-(trifluoromethyl)phenyl]-2-propenamide] came in with a melting point of 82 to 84 °C.

`N=C(Nc1cccc(NC(=O)/C=C/c2ccc(Cl)cc2)c1)c1ccccc1` [Example 47, (2E)-N-[3-(iminobenzylamino)phenyl]-3-(4-chlorophenyl)-2-propenamide] returned a melting point of 109 to 110 °C. In the case of `COc1cccc(/C=C/C(=O)Nc2cccc(NC(=N)c3ccccc3)c2)c1` [Example 48, (2E)-N-[3(iminobenzylamino)phenyl]-3-(3-methoxyphenyl)-2-propenamide], the melting point lay within 148 to 149 °C. As for `O=C(C=Cc1ccccc1Cl)Nc1cccc(CNc2ccc3ccccc3n2)c1` [Example 50, N-[3-[(2-quinolylamino)methyl]phenyl]-3-(2-chlorophenyl)-2-propenamide], the melting point was in the range of 170 to 171 °C. Compound `CN(C)c1ccc(C(=N)Nc2cccc(NC(=O)C=Cc3ccccc3)c2)cc1` [Example 51, N-[3-[[[4-(dimethylamino)phenyl](imino)methyl]amino]phenyl]cinnamamide] registered a melting point of 225 to 227 °C. The compound `N=C(Nc1cccc(NC(=O)/C=C/c2cccc(Cl)c2)c1)c1ccccc1` [Example 53, (2E)-N-[3-(iminobenzylamino)phenyl]-3-(3-chlorophenyl)-2-propenamide] registered a melting point of 260 to 262 °C.

Take `N=C(Nc1cccc(NC(=O)/C=C/c2ccccc2Cl)c1)c1ccccc1` [Example 54, (2E)-N-[3-(iminobenzylamino)phenyl]-3-(2-chlorophenyl)-2-propenamide]: the melting point was 262 to 264 °C. Compound `N=C(Nc1cc(Cl)cc(NC(=O)/C=C/c2ccccc2C(F)(F)F)c1)c1ccsc1` [Example 56, (2E)-N-[3-chloro-5-[[imino(3-thienyl)methyl]amino]phenyl]-3-[2-(trifluoromethyl)phenyl]-2-propenamide] registered a melting point of 121 to 123 °C.

With `O=C(C=Cc1ccccc1Cl)Nc1cccc(-c2nc3ccccc3[nH]2)c1` [Example 58, N-[3-(1H-benzimidazol-2-yl)phenyl]-3-(2-chlorophenyl)-2-propenamide], the melting point lay in the range of 152 to 154 °C. The figure for `Cc1ncccc1Oc1ccc(C(=N)Nc2cc(Cl)cc(NC(=O)C=Cc3ccccc3Cl)c2)cc1` [Example 59, N-[3-chloro-5-[[imino[4-[(2-methyl-3-pyridyl)oxy]phenyl]methyl]amino]phenyl]-3-(2-chlorophenyl)-2-propenamide] is 105 to 107 °C.

With `N=C(Nc1cccc(NC(=O)/C=C/c2ccccc2C(F)(F)F)c1F)c1ccccc1` [Example 61, (2E)-N-[3-(iminobenzylamino)-2-fluorophenyl]-3-[2-(trifluoromethyl)phenyl]-2-propenamide], the melting point was 185 to 187 °C.

Compound `N=C(Nc1ccc(F)c(NC(=O)/C=C/c2ccccc2C(F)(F)F)c1)c1cccs1` [Example 62, (2E)-N-[2-fluoro-5-[[imino(2-thienyl)methyl]amino]phenyl]-3-[2-(trifluoromethyl)phenyl]-2-propenamide] had a melting point of 208 to 209 °C. As for `Cc1ncccc1Oc1ccc(C(=N)Nc2cc(Cl)cc(NC(=O)C=Cc3ccccc3C(F)(F)F)c2)cc1` [Example 64, N-[3-chloro-5-[[imino[4-[(2-methyl-3-pyridyl)oxy]phenyl]methyl]amino]phenyl]-3-[2-(trifluoromethyl)phenyl]-2-propenamide], the melting point is 114 to 119 °C. As for `N#Cc1ccccc1/C=C/C(=O)Nc1cc(Cl)cc(NC(=N)c2ccccc2)c1` [Example 67, (2E)-N-[3-chloro-5-(iminobenzylamino)phenyl]-3-(2-cyanophenyl)-2-propenamide], the melting point is 220 to 221 °C.

The record behind these values is patent US20040087798A1, “Novel amide compounds” (priority 2000, published 2004).
